From a melting point compilation (Tetko et al.; mined from patent text by program, amines drawn as free bases though some values may be those of a salt) come the findings set out here.

`Cc1cc(-c2nnc3cc(C(C)(C)C)c(OCc4ncn(C)n4)nn23)no1` yielded a melting point of 221 to 223 °C. For `CNCCc1c(C)[nH]c2ccc(S(=O)(=O)c3ccccc3)cc12`, the melting point was 165 to 166 °C. The result for `CCCOc1cccc(-c2ccc3c(c2)C=C(C(=O)Nc2ccc(CN(C)C4CCOCC4)cc2)CCS3(=O)=O)c1` reads 219 to 221 °C.

Take `CCC(=O)Nc1cccc(C(=O)C=CN(C)C)c1`: the melting point lay within 106 to 108 °C.

With `O=C(O)CCCc1ccc(CNC(=O)C2Cc3ccccc3N2S(=O)(=O)c2ccc(-c3cccc(C(F)(F)F)c3)cc2)cc1` (stereo not drawn), the melting point is 75 °C.

With `O=C(Oc1ccc([N+](=O)[O-])cc1)C(O)O`, the melting point is 100 to 102 °C.

The compound `COc1cc(OC)cc(-c2nsnc(Cl)c2=O)c1` registered a melting point of 121 to 124 °C. The result for `CCN(C)c1ccc(Cl)nn1` reads 61 to 63 °C; that for `CCC(=O)Nc1cscn1`, 129 to 132 °C; that for `O=C(Cc1cccc2ccccc12)N[C@H](Cc1ccc(C(F)(F)F)cc1)[C@@H](O)c1ccc(F)cc1` (racemic), 186 to 187 °C.

In turn, `O=c1c2c(nc3n1CCc1c-3[nH]c3cc(Cl)cc(Cl)c13)CCCC2` registered a melting point of 296 to 297 °C. In the case of `COc1cccc([C@H]2O[C@H](CC(=O)NS(=O)(=O)CCCO)C(=O)N(CC(C)(C)CO)c3ccc(Cl)cc32)c1OC`, the melting point was 133 to 135 °C.

`O=C(O)CCc1ccc(-c2nc3c(=O)n(CC4CCCCC4)c(=O)n(CC4CCCCC4)c3[nH]2)cc1` showed a melting point of more than 300 °C.

As to `COC(=O)C(=O)c1ccc(OCCOc2cc3ccccc3cc2O)cc1`, the melting point fell in the range of 177 to 178 °C. The result for `CCCCCCCCCCCCn1nnc(CC(=O)O)n1` reads 70 to 73 °C; that for `COC1C(c2ccccc2)=C(c2ccc(S(C)(=O)=O)cc2)C1(C)C` (stereo not drawn), 130 to 132 °C; that for `OC(CN1CCN(Cc2ccc(F)cc2)CC1)Cn1c2ccccc2c2cc(-c3ccccc3)ccc21` (stereo not drawn), 188 °C. In turn, `CCCN(CCC)C1COc2cccc(C(=O)c3ccccc3F)c2C1` (stereo not drawn) came in with a melting point of 98.3 to 98.4 °C.

Regarding `CN1C(=O)C(c2ccc(OCCF)cc2)(c2ccc(F)c(-c3cccnc3F)c2)N=C1N` (stereo not drawn), the melting point was 135 °C. The result for `COc1c(C)cc(N2CCN(c3ccc([N+](=O)[O-])cc3)CC2)cc1C` reads 135 °C. As to `N#CN=C(NCCSCc1ncccc1Br)NCCSCc1ncccc1Br`, the melting point was 118 to 119 °C. The result for `FC(F)(F)c1cc(Br)c(OCc2ccccc2)c(OCc2ccccc2)c1` reads 79 to 80 °C; that for `Nc1cc(C(=O)O)cc(OCc2ccsc2)c1-c1ccccc1`, 139 to 140 °C; that for `CCOC(=O)/C=C/c1cc(OCc2ccc(OCc3nc(-c4ccccc4)oc3C)c(OC)c2)nn1-c1ccccc1`, 121 to 122 °C. The value for `N#Cc1coc2ccc3ccc(O)cc3c2c1=O` was 289 to 292 °C.

`COCCNc1c([N+](=O)[O-])cc(C(F)(F)F)c(Cl)c1[N+](=O)[O-]`: the melting point lay in the range of 106 to 108 °C. The result for `Cc1onc(-c2ccccc2)c1C(=O)NCCCN1CCN(c2cc(Cl)ccc2O)CC1` reads 92 to 98 °C; that for `O=C(Nc1ccc(C(=O)N2CCCCc3ccccc32)cc1)c1ccccc1OCCCCCCN1C(=O)c2ccccc2C1=O`, 145 to 146 °C. The result for `CCN1C(=O)Cc2cccc(OC(=O)CCl)c21` reads 105 to 110 °C; that for `Cc1cc(C)n2nc(S(=O)(=O)Nc3ccccc3Cl)nc2n1`, 188 to 190 °C; that for `C=CCN(CC=C)Cc1nc(-c2ncn3c2CN(C)C(=O)c2c(Cl)cccc2-3)no1`, 126 to 130 °C. The result for `COCOc1cc(CCCOc2ncccc2CC(=O)O)n(Cc2ccc(Cl)cc2Cl)n1` reads 101 to 102 °C.

Regarding `NC(=O)COC(=O)c1ccccc1Cl`, the melting point lay within 117 to 120 °C.

The compound `COCc1cccc(-c2nn(C(C)c3oc4ccccc4c(=O)c3-c3cccc(F)c3)c3ncnc(N)c23)c1` (stereo not drawn) returned a melting point of 167 to 170 °C. The value for `CC1CCC(=NNc2ccccc2)c2nccc(=O)n21` (stereo not drawn) was 163 to 164 °C; that for `COC(=O)C(C)(N)Cc1csc2ccccc12` (stereo not drawn) was 44 to 45 °C; that for `COc1nc(C)nc(NC(=O)NS(=O)(=O)c2c(C)csc2C)n1` was 189 °C. The compound `O=C(O)C[C@@H](c1ccccc1)c1c[nH]c2cc(OCCCNc3ccccn3)ccc12` gave a melting point of 137 °C. Regarding `CSc1sc(-c2cccnc2)c2c1C(=O)C(=CO)C(C)(C)C2`, the melting point was 154 to 156 °C. The result for `Cc1nn(CCNS(C)(=O)=O)c(-c2ccc(F)cc2)c1-c1ccc2c(c1)NC(=O)CO2` reads 220 to 221 °C; that for `O=C1N(Cc2ccccn2)c2ccccc2C12COc1cc3c(cc12)CCO3` (stereo not drawn), 84 to 85 °C. For the compound `Cc1cc2c(c(C)c1NC(=O)CC(C)(C)C)C(O)C(C)(C)O2` (stereo not drawn), the melting point lay within 217 to 218 °C. The value for `O=S(=O)(/C=C/c1ccc(Cl)cc1)Nc1cccc(Cl)c1` was 118 to 120 °C. The value for `CC(=O)NC1=C(C#N)C(c2cccc([N+](=O)[O-])c2)c2ccc3ccccc3c2O1` (stereo not drawn) was 234 to 236 °C.

For `C=CCC1(C(=O)N2CCCCC2)c2ccccc2-c2ccccc21`, the melting point lay in the range of 64 to 66 °C.

For `CC(C)(Oc1ccc(CC(=O)Nc2ccc(Cl)cc2)cc1)C(=O)O`, the melting point was found to be 163 °C.

Turning to `FC(F)(F)c1n[nH]c2ccccc12`, the melting point came out at 104 °C.

As to `NS(=O)(=O)c1ccc(NC(=O)CCl)c(F)c1`, the melting point lay within 185 to 187 °C. The compound `CC(C)CCCC(C)C1CCC2C3CCC4CC(OC=O)CCC4(C)C3CCC12C` (stereo not drawn) showed a melting point of 107 to 108 °C.

`COC(=O)c1ccc(Cn2c(=O)c3cc(C#CCc4ccc(OC)cc4)ccc3n3cnnc23)cc1` gave a melting point of 249 °C. The result for `CC(C)CCOc1c(Cl)c(Sc2ccccc2N)c(OCCC(C)C)c2c1C(=N)NC2=N` reads 175 to 176 °C; that for `Cc1ccc(N2CC(COc3ccc(C(=O)O)cc3)CC2=O)cc1` (stereo not drawn), 212 to 213 °C. The value for `FC(F)(F)c1ccc(OCCC(Br)c2ccccc2)cc1` (stereo not drawn) was 61 to 63 °C; that for `Cc1cccc(C(=C2CN(C(c3ccccc3)c3ccccc3)C2)S(C)(=O)=O)c1` was 180 °C. In the case of `CC(=O)NCc1ccc2c(c1)N(C1CCN(CCCCc3ccc(F)cc3)CC1)CC2`, the melting point lay in the range of 119 to 121 °C. Take `CCOC(NC(=O)c1snc(Cl)c1Cl)C(F)(F)F` (stereo not drawn): the melting point is 99 to 101 °C. The result for `Nc1ncnc2c1c(-c1cc(O)cc(F)c1)nn2Cc1oc2ccc(F)cc2c(=O)c1-c1cccc(F)c1` reads 127 to 129 °C. The compound `O=C(O)Cc1ccc(O)c(Cl)c1` registered a melting point of 101 to 104 °C.

Compound `O=C1Cc2cc(NC(=O)C(=O)N3CCC(Cc4cccc(F)c4)CC3)ccc2N1` registered a melting point of 182 to 184 °C. `COC(=O)c1cc([N+](=O)[O-])c(C(F)(F)F)cc1N` gave a melting point of 175 to 177 °C. `CCN(CC)c1ccc2c(c1)Oc1cc(OC(C)=O)c3ccccc3c1N2C(C)=O` showed a melting point of 64 to 72 °C.

Compound `CCCCCCCCn1c2cc(OC)ccc2c2ccc(OC)cc21` had a melting point of 63 to 64 °C.

Compound `C=CC(O)C1OC(C)(C)OC1C(O)CO` (stereo not drawn) registered a melting point of 73 to 74 °C. The result for `O=S(=O)(Nc1ccc(Cl)cc1I)c1ccc2ncsc2c1` reads 162 °C.

With `CCCc1c(OCCCSc2ccc(C(=O)NCC(=O)OCC)cc2)ccc(C(C)=O)c1O`, the melting point is 115 to 116 °C.

With `CCCCCC(Cc1ccc(OC)c(OCCc2ccccc2)c1)NC(=O)OC(C)(C)C` (stereo not drawn), the melting point lay in the range of 91.5 to 92.5 °C. In turn, `O=C1CCCCN1Cc1ccc[nH]1` showed a melting point of 106 °C.

In turn, `CN1CCN(Cc2c(CO)c(Cl)nc3cc4c(cc23)OCCO4)CC1` gave a melting point of 178 to 180 °C. Compound `CCOC(=O)Cc1c(C)n(Cc2ccc(Cl)cc2)c2cccc(OCc3csc(-c4ccc(Cl)cc4)n3)c12` displayed a melting point of 133 to 135 °C. Compound `CCC(CC)(NC(C)=O)c1ccc(CN2CCN(c3ccccc3)CC2)cc1` registered a melting point of 139 to 140 °C.

`O=C(Nc1ccccc1)C1=C(O)c2ccc3ccccc3c2S(=O)(=O)N1` displayed a melting point of 260 to 262 °C.

In the case of `CCN1C(=O)C(C(=O)Nc2ccc(Cl)cc2)c2cc3c(cc21)CCO3` (stereo not drawn), the melting point lay within 175 to 176 °C. On to `O=c1[nH]c2ncc(-c3ccc(O)cc3)nc2n1C1CCCCC1`, for which the melting point fell in the range of 318 to 320 °C. The result for `CC1(C)CNc2cc3[nH]c(-c4cccnc4)nc3cc21` reads 213 to 215 °C; that for `CCCCCc1c(O)ccc2c1OCCC2=O`, 132 to 134 °C. The result for `CCCC(CCC)n1[nH]c(Cc2c(C)n(C(=O)c3ccc(Cl)cc3)c3ccc(OC)cc23)cc1=O` reads 167 to 168 °C; that for `C=CCON=C(C(=O)OCC)c1csc(NC(c2ccccc2)(c2ccccc2)c2ccccc2)n1`, 130 to 132 °C; that for `N#Cc1ccc2c(c1)C(c1ncnc3c1cnn3C1CCCC1)C(=O)N2` (stereo not drawn), more than 300 °C. The result for `COCc1c(-c2ccon2)ncc2[nH]c3ccc(OCc4ccccc4)cc3c12` reads 123 to 126 °C; that for `O=C(COc1ccc(OCc2ccccc2)cc1)NCCCn1ccnc1`, 112 to 113 °C. Compound `Cc1cccc(C(=O)C(C)(C)C(C)(C)[N+](=O)[O-])c1` yielded a melting point of 50 to 51 °C.

As for `Cn1c(OC2CCOC2)nn(C(=O)NS(=O)(=O)c2ccccc2Br)c1=O` (stereo not drawn), the melting point turned out to be 191 °C. For `CC1CN(C)CCC1(O)c1cc2ccccc2o1` (stereo not drawn), the melting point was in the range of 128 to 130 °C. The value for `CNc1cc(OC)c(OC)cc1[N+](=O)[O-]` was 147 °C.

For `Cc1nc2c(OCc3ccccc3)cc(C(=O)N(C)C)cn2c1C`, the melting point is 160 °C. The value for `O=[N+]([O-])c1cc(Cl)c(Cl)cc1NC1CCC(O)C1O` (stereo not drawn) was 134 to 136 °C; that for `O=C(Nc1ccc2[nH]c(=O)c(=O)[nH]c2c1)C(F)(F)F` was more than 330 °C; that for `Cc1ccsc1-c1ccc(C(C)C(=O)O)cc1` (stereo not drawn) was 95 to 96 °C.

A word on the melting point: it is the temperature of the solid-liquid transition.
